Data from US9732119B2, “Immunomodulators” (BRISTOL-MYERS SQUIBB COMPANY, priority 2014, dated 2017).
Non-standard residues stand in square brackets, D forms with d. Residues, ends and D or L forms follow the SMILES beside them. Hyp = O=C(O)[C@@H]1C[C@@H](O)CN1; NMeNle = CCCC[C@H](NC)C(=O)O; NMeA = CN[C@@H](C)C(=O)O; Dab = NCC[C@H](N)C(=O)O; Dap = NC[C@H](N)C(=O)O; GABA = NCCCC(=O)O; βAla = NCCC(=O)O; Sar = CNCC(=O)O

molecular target: T1, PD-1-Ig binding to PD-L1-TVMV-His (PD-L1-His) (Homo sapiens, UniProt Q9NZQ7); assay: PD-1/PD-L1 Homogenous Time-Resolved Fluorescence (HTRF) binding assay; conditions: PD-1-Ig (20 nM) / PD-L1-His (10 nM); numeric values
T1 construct: hPDL1(19-239)-TVMV-His; made in house; host or cells: HEK293T cells
T1 sequence (Q9NZQ7 with tags, fused parts or gaps): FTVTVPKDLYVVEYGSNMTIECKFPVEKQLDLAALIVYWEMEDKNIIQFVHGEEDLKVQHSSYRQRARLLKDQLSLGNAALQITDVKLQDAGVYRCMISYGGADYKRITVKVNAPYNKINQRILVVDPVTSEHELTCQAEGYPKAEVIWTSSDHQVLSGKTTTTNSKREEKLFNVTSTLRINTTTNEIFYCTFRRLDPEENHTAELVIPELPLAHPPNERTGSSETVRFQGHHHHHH
Source text: The ability of the macrocyclic peptides of the present disclosure to bind to PD-L1 was investigated using a PD-1/PD-L1 Homogenous Time-Resolved Fluorescence (HTRF) binding assay.
Homogenous Time-Resolved Fluorescence (HTRF) Assays of Binding of Soluble PD-1 to Soluble PD-L1. Soluble PD-1 and soluble PD-L1 refers to proteins with carboxyl-end truncations that remove the transmembrane-spanning regions and are fused to heterologous sequences, specifically the Fc portion of the human immunoglobuling G sequence (Ig) or the hexahistidine epitope tag (His). All binding studies were performed in an HTRF assay buffer consisting of dPBS supplemented with 0.1% (w/v) bovine serum albumin and 0.05% (v/v) Tween-20. For the PD-1-Ig/PD-L1-His binding assay, inhibitors were pre-incubated with PD-L1-His (10 nM final) for 15 m in 4 μl of assay buffer, followed by addition of PD-1-Ig (20 nM final) in 1 μl of assay buffer and further incubation for 15 m. PD-L1 fusion proteins from either human, cynomologous macaques, mouse, or other species were used. HTRF detection was achieved using europium crypate-labeled anti-Ig monoclonal antibody (1 nM final) and allophycocyanin (APC) labeled anti-His monoclonal antibody (20 nM final). Antibodies were diluted in HTRF detection buffer and 5 μl was dispensed on top of binding reaction. […] Additional binding assays were established between PD-1-Ig/PD-L2-His (20 and 5 nM, respectively), CD80-His/PD-L1-Ig (100 and 10 nM, respectively) and CD80-His/CTLA4-Ig (10 and 5 nM, respectively).
Recombinant Proteins. […] Human PD-L2-His (Sino Biologicals), CD80-His (Sino Biologicals), CTLA4-Ig (RnD Systems) were all obtained through commercial sources.

| IC50 [nM] | SMILES |
| --- | --- |
| 5 | CCCC[C@H]1C(=O)N(C)[C@@H](CCCC)C(=O)N[C@@H](CC(C)C)C(=O)N[C@H](C(=O)NCC(N)=O)CNCC(=O)N[C@@H](Cc2ccc(O)cc2)C(=O)N(C)[C@@H](C)C(=O)N[C@@H](CC(N)=O)C(=O)N2CCC[C@H]2C(=O)N[C@@H](CCC(N)=O)C(=O)N[C@@H](CCC(=O)O)C(=O)N2C[C@H](O)C[C@H]2C(=O)N[C@@H](Cc2c[nH]c3ccccc23)C(=O)N[C@@H](CC(N)=O)C(=O)N[C@@H](Cc2cn(CC(=O)O)c3ccccc23)C(=O)N1C [Example 9007] |

same assay, conditions: PD-1-Ig (20 nM) / PD-L1-His (10 nM); range classes

| IC50 [nM] | SMILES |
| --- | --- |
| 1 to 9.9 | CCCC[C@H]1C(=O)N(C)[C@@H](CCCC)C(=O)N[C@@H](CC(C)C)C(=O)N[C@H](C)C(=O)NCC(=O)N[C@@H](Cc2ccc(O)cc2)C(=O)N(C)[C@@H](C)C(=O)N[C@@H](CC(N)=O)C(=O)N2CCC[C@H]2C(=O)N[C@@H](CN)C(=O)N[C@@H](CC(C)C)C(=O)N2C[C@H](O)C[C@H]2C(=O)N[C@@H](Cc2c[nH]c3ccccc23)C(=O)N[C@@H](CCN)C(=O)N[C@@H](Cc2c[nH]c3ccccc23)C(=O)N1C [Example 5007] (cyclo([Dab]W[NMeNle][NMeNle]L[dA]GY[NMeA]NP[Dap]L[Hyp]W)) |
| 1 to 9.9 | CCCC[C@H]1C(=O)N(C)[C@@H](CCCC)C(=O)N[C@@H](CC(C)C)C(=O)N[C@H](C(=O)NCC(N)=O)CNCC(=O)N[C@@H](Cc2ccc(O)cc2)C(=O)N(C)[C@@H](C)C(=O)N[C@@H](CC(N)=O)C(=O)N2CCC[C@H]2C(=O)N[C@@H](CCC(N)=O)C(=O)N[C@@H](CCC(N)=O)C(=O)N2C[C@H](O)C[C@H]2C(=O)N[C@@H](Cc2c[nH]c3ccccc23)C(=O)N[C@@H](CC(N)=O)C(=O)N[C@@H](Cc2cn(CC(=O)O)c3ccccc23)C(=O)N1C [Example 9008] |
| 10 to 99 | CCCC[C@H]1C(=O)N(C)[C@@H](CCCC)C(=O)N[C@@H](CC(C)C)C(=O)N[C@H](C(=O)NCC(N)=O)CNCC(=O)N[C@@H](Cc2ccc(F)cc2)C(=O)N(C)[C@@H](C)C(=O)N[C@@H](CC(N)=O)C(=O)N2CCC[C@H]2C(=O)N[C@@H](CCC(N)=O)C(=O)N[C@@H](CCC(=O)O)C(=O)N2C[C@H](O)C[C@H]2C(=O)N[C@@H](Cc2c[nH]c3ccccc23)C(=O)N[C@@H](CC(N)=O)C(=O)N[C@@H](Cc2cn(CC(=O)O)c3ccccc23)C(=O)N1C [Example 9011] |
| 1 to 9.9 | CCCC[C@H]1C(=O)N(C)[C@@H](CCCC)C(=O)N[C@@H](CC(C)C)C(=O)N[C@H](C(N)=O)CNCC(=O)N[C@@H](Cc2ccc(O)cc2)C(=O)N2CCCC[C@H]2C(=O)N[C@@H](CC(=O)O)C(=O)N2CCC[C@H]2C(=O)N[C@@H](CCC(N)=O)C(=O)N[C@@H](CCC(=O)O)C(=O)N2C[C@H](O)C[C@H]2C(=O)N[C@@H](Cc2c[nH]c3ccccc23)C(=O)N[C@@H](CC(N)=O)C(=O)N[C@@H](Cc2cn(CC(=O)O)c3ccccc23)C(=O)N1C [Example 9014] |

Continued, compound first:

| SMILES | IC50 [nM] |
| --- | --- |
| CCCC[C@H]1C(=O)N(C)[C@@H](CCCC)C(=O)N[C@@H](CC(C)C)C(=O)NCC(=O)NCCC(=O)N[C@@H](Cc2ccc(O)cc2)C(=O)N(C)[C@@H](C)C(=O)N[C@@H](CC(N)=O)C(=O)N2CCC[C@H]2C(=O)N[C@@H](Cc2c[nH]cn2)C(=O)N[C@@H](CC(C)C)C(=O)N2C[C@H](O)C[C@H]2C(=O)N[C@@H](Cc2c[nH]c3ccccc23)C(=O)NCC(=O)N[C@@H](Cc2c[nH]c3ccccc23)C(=O)N1C [Example 5004] (cyclo(GW[NMeNle][NMeNle]LG[βAla]Y[NMeA]NPHL[Hyp]W)) | 100 to 10000 |
| CCCC[C@H]1C(=O)N(C)[C@@H](CCCC)C(=O)N[C@@H](CC(C)C)C(=O)NCCCC(=O)NCC(=O)N[C@@H](Cc2ccc(O)cc2)C(=O)N(C)[C@@H](C)C(=O)N[C@@H](CC(N)=O)C(=O)N2CCC[C@H]2C(=O)N[C@@H](Cc2c[nH]cn2)C(=O)N[C@@H](CC(C)C)C(=O)N2C[C@H](O)C[C@H]2C(=O)N[C@@H](Cc2c[nH]c3ccccc23)C(=O)NCC(=O)N[C@@H](Cc2c[nH]c3ccccc23)C(=O)N1C [Example 5005] (cyclo(GW[NMeNle][NMeNle]L[GABA]GY[NMeA]NPHL[Hyp]W)) | 100 to 10000 |
| CCCC[C@H]1C(=O)N(C)[C@@H](CCCC)C(=O)N[C@@H](CC(C)C)C(=O)N[C@@H](C)C(=O)NCC(=O)N[C@@H](Cc2ccc(O)cc2)C(=O)N(C)[C@@H](C)C(=O)N[C@@H](CC(N)=O)C(=O)N2CCC[C@H]2C(=O)N[C@@H](CN)C(=O)N[C@@H](CC(C)C)C(=O)N2C[C@H](O)C[C@H]2C(=O)N[C@@H](Cc2c[nH]c3ccccc23)C(=O)N[C@@H](CCN)C(=O)N[C@@H](Cc2c[nH]c3ccccc23)C(=O)N1C [Example 5006] (cyclo(AGY[NMeA]NP[Dap]L[Hyp]W[Dab]W[NMeNle][NMeNle]L)) | 10 to 99 |
| CCCC[C@H]1C(=O)N(C)[C@@H](CCCC)C(=O)N[C@@H](CC(C)C)C(=O)N2CCC[C@@H]2C(=O)NCC(=O)N[C@@H](Cc2ccc(O)cc2)C(=O)N(C)[C@@H](C)C(=O)N[C@@H](CC(N)=O)C(=O)N2CCC[C@H]2C(=O)N[C@@H](CN)C(=O)N[C@@H](CC(C)C)C(=O)N2C[C@H](O)C[C@H]2C(=O)N[C@@H](Cc2c[nH]c3ccccc23)C(=O)N[C@@H](CCN)C(=O)N[C@@H](Cc2c[nH]c3ccccc23)C(=O)N1C [Example 5008] (cyclo([Dab]W[NMeNle][NMeNle]L[dP]GY[NMeA]NP[Dap]L[Hyp]W)) | 1 to 9.9 |
| CCCC[C@H]1C(=O)N(C)[C@@H](CCCC)C(=O)N[C@@H](CC(C)C)C(=O)N(C)CC(=O)NCC(=O)N[C@@H](Cc2ccc(O)cc2)C(=O)N(C)[C@@H](C)C(=O)N[C@@H](CC(N)=O)C(=O)N2CCC[C@H]2C(=O)N[C@@H](CN)C(=O)N[C@@H](CC(C)C)C(=O)N2C[C@H](O)C[C@H]2C(=O)N[C@@H](Cc2c[nH]c3ccccc23)C(=O)N[C@@H](CCN)C(=O)N[C@@H](Cc2c[nH]c3ccccc23)C(=O)N1C [Example 5009] (cyclo([Dab]W[NMeNle][NMeNle]L[Sar]GY[NMeA]NP[Dap]L[Hyp]W)) | 1 to 9.9 |
| CCCC[C@H]1C(=O)N(C)[C@@H](CCCC)C(=O)N[C@@H](CC(C)C)C(=O)N[C@H](C(=O)NCC(N)=O)CNCC(=O)N[C@@H](Cc2ccc(O)cc2)C(=O)N(C)[C@@H](C)C(=O)N[C@@H](CC(N)=O)C(=O)N2CCC[C@H]2C(=O)N[C@@H](CCC(N)=O)C(=O)N[C@@H](CC(C)C)C(=O)N2C[C@H](O)C[C@H]2C(=O)N[C@@H](Cc2c[nH]c3ccccc23)C(=O)N[C@@H](CC(N)=O)C(=O)N[C@@H](Cc2cn(CC(=O)O)c3ccccc23)C(=O)N1C [Example 9005] | 1 to 9.9 |
| CCCC[C@H]1C(=O)N(C)[C@@H](CCCC)C(=O)N[C@@H](CC(C)C)C(=O)N[C@H](C(=O)NCC(N)=O)CNCC(=O)N[C@@H](Cc2ccc(O)cc2)C(=O)N(C)[C@@H](C)C(=O)N[C@@H](CC(N)=O)C(=O)N2CCC[C@H]2C(=O)N[C@@H](CCC(N)=O)C(=O)N[C@@H](CC(=O)O)C(=O)N2C[C@H](O)C[C@H]2C(=O)N[C@@H](Cc2c[nH]c3ccccc23)C(=O)N[C@@H](CC(N)=O)C(=O)N[C@@H](Cc2cn(CC(=O)O)c3ccccc23)C(=O)N1C [Example 9006] | 1 to 9.9 |
| CCCC[C@H]1C(=O)N(C)[C@@H](CCCC)C(=O)N[C@@H](CC(C)C)C(=O)N[C@H](C(=O)NCC(N)=O)CNCC(=O)N[C@@H](Cc2ccc(F)cc2)C(=O)N(C)[C@@H](C)C(=O)N[C@@H](CC(N)=O)C(=O)N2CCC[C@H]2C(=O)N[C@@H](CCC(N)=O)C(=O)N[C@@H](CC(C)C)C(=O)N2C[C@H](O)C[C@H]2C(=O)N[C@@H](Cc2c[nH]c3ccccc23)C(=O)N[C@@H](CC(N)=O)C(=O)N[C@@H](Cc2cn(CC(=O)O)c3ccccc23)C(=O)N1C [Example 9009] | 1 to 9.9 |
| CCCC[C@H]1C(=O)N(C)[C@@H](CCCC)C(=O)N[C@@H](CC(C)C)C(=O)N[C@H](C(=O)NCC(N)=O)CNCC(=O)N[C@@H](Cc2ccc(F)cc2)C(=O)N(C)[C@@H](C)C(=O)N[C@@H](CC(N)=O)C(=O)N2CCC[C@H]2C(=O)N[C@@H](CCC(N)=O)C(=O)N[C@@H](CC(=O)O)C(=O)N2C[C@H](O)C[C@H]2C(=O)N[C@@H](Cc2c[nH]c3ccccc23)C(=O)N[C@@H](CC(N)=O)C(=O)N[C@@H](Cc2cn(CC(=O)O)c3ccccc23)C(=O)N1C [Example 9010] | 10 to 99 |
| CCCC[C@H]1C(=O)N(C)[C@@H](CCCC)C(=O)N[C@@H](CC(C)C)C(=O)N[C@H](C(=O)NCC(N)=O)CNCC(=O)N[C@@H](Cc2ccc(O)cc2)C(=O)N(C)[C@@H](C)C(=O)N[C@@H](CC(=O)O)C(=O)N2CCC[C@H]2C(=O)N[C@@H](CCC(N)=O)C(=O)N[C@@H](CC(C)C)C(=O)N2C[C@H](O)C[C@H]2C(=O)N[C@@H](Cc2c[nH]c3ccccc23)C(=O)N[C@@H](CC(N)=O)C(=O)N[C@@H](Cc2cn(CC(=O)O)c3ccccc23)C(=O)N1C [Example 9012] | 10 to 99 |
| CCCC[C@H]1C(=O)N(C)[C@@H](CCCC)C(=O)N[C@@H](CC(C)C)C(=O)N[C@H](C(=O)NCC(N)=O)CNCC(=O)N[C@@H](Cc2ccc(O)cc2)C(=O)N(C)[C@@H](C)C(=O)N[C@@H](CC(=O)O)C(=O)N2CCC[C@H]2C(=O)N[C@@H](CCC(N)=O)C(=O)N[C@@H](CC(=O)O)C(=O)N2C[C@H](O)C[C@H]2C(=O)N[C@@H](Cc2c[nH]c3ccccc23)C(=O)N[C@@H](CC(N)=O)C(=O)N[C@@H](Cc2cn(CC(=O)O)c3ccccc23)C(=O)N1C [Example 9013] | 10 to 99 |
